{"source": "patent US20200264182A1", "about": "“METHOD FOR DETECTING PROSTATE CANCER” (J-OIL MILLS, INC., priority 2017, published 2020)", "key": {"[1]": {"test_system": "serum fucosylated PSA", "assay": "Sandwich ELISA, anti-PSA antibody and biotin-labeled lectin", "format": "binding, human", "settings": "for Δ (=A − B): reaction value of Prostate cancer 4 minus Healthy 1; for lectin reaction value B of Healthy 1: serum of Healthy 1; for lectin reaction value A of Prostate cancer 4: serum of Prostate cancer 4, GS 6 (3 + 3)", "method_in_brief": "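De-glycosylated anti-PSA antibody (5 μg/mL) captured PSA from 2-fold diluted serum, detected with biotin-PhoSL (0.1 μg/mL, 4° C, 30 min) in 0.1% BSA/diluted PBS+glycine-NaOH pH 9.6 or PBS pH 7.4, then HRP-streptavidin/TMB at Ab450-630. Values in U/mL from fucosylated PSA calibration, 10 ng/mL defined as 10 U/mL; AAL substituted for comparison.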"}, "[2]": {"assay": "FAC binding constant (Table 5 entry)", "settings": "Table 5: sugar chain having no fucose; at 25° C.", "method_in_brief": "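Binding constants were measured by FAC at 25° C. The lectins tested were PhoSL, SRL, NSL and LSL, all fucose α1→6 specific, each run against a panel of sugar chains.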"}, "[3]": {"settings": "subject samples A, 7 healthy persons, pH 9.6"}, "[4]": {"settings": "subject samples A, 9 patients, pH 9.6"}, "[5]": {"settings": "subject samples B, n 9, high blood PSA but no cancer in biopsy, pH 9.6"}, "[6]": {"settings": "subject samples B, n 11, pH 9.6"}}, "note": "Where no end group is shown, it is not given here.", "data": [{"substance": "PhoSL: fucose α1→6 specific lectin that can be extracted from Pholiota squarrosa, SEQ ID No. 1 (APVPVTKLVCDGDTYKCTAYLDFGDGRWVAQWDTNVFHTG; not fully specified; ends and bridges not checked)", "values": [{"measurement": "Δ (=A − B)", "setting": "[1]; pH in lectin reaction 7.4", "result": 72.6, "unit": "U/mL"}, {"measurement": "Δ (=A − B)", "setting": "[1]; pH in lectin reaction 9.6", "result": 126.9, "unit": "U/mL"}, {"measurement": "lectin reaction value B of Healthy 1", "setting": "[1]; pH in lectin reaction 7.4", "result": 35.8, "unit": "U/mL"}, {"measurement": "lectin reaction value B of Healthy 1", "setting": "[1]; pH in lectin reaction 9.6", "result": 51.9, "unit": "U/mL"}, {"measurement": "lectin reaction value of Healthy 2", "setting": "[1]; serum of Healthy 2, pH in lectin reaction 9.6", "result": 55.9, "unit": "U/mL"}, {"measurement": "lectin reaction value of Healthy 3", "setting": "[1]; serum of Healthy 3, pH in lectin reaction 9.6", "result": 63.9, "unit": "U/mL"}, {"measurement": "lectin reaction value of Healthy 4", "setting": "[1]; serum of Healthy 4, pH in lectin reaction 9.6", "result": 74.9, "unit": "U/mL"}, {"measurement": "lectin reaction value of Healthy 5", "setting": "[1]; serum of Healthy 5, pH in lectin reaction 9.6", "result": 55.8, "unit": "U/mL"}, {"measurement": "lectin reaction value of Healthy 6", "setting": "[1]; serum of Healthy 6, pH in lectin reaction 9.6", "result": 39.7, "unit": "U/mL"}, {"measurement": "lectin reaction value of Healthy 7", "setting": "[1]; serum of Healthy 7, pH in lectin reaction 9.6", "result": 59.0, "unit": "U/mL"}, {"measurement": "lectin reaction value of Prostate cancer 1", "setting": "[1]; serum of Prostate cancer 1, GS 4 (2 + 2), pH in lectin reaction 9.6", "result": 115.8, "unit": "U/mL"}, {"measurement": "lectin reaction value of Prostate cancer 2", "setting": "[1]; serum of Prostate cancer 2, GS 5 (2 + 3), pH in lectin reaction 9.6", "result": 116.7, "unit": "U/mL"}, {"measurement": "lectin reaction value of Prostate cancer 3", "setting": "[1]; serum of Prostate cancer 3, GS 6 (3 + 3), pH in lectin reaction 9.6", "result": 104.5, "unit": "U/mL"}, {"measurement": "lectin reaction value A of Prostate cancer 4", "setting": "[1]; pH in lectin reaction 7.4", "result": 108.4, "unit": "U/mL"}, {"measurement": "lectin reaction value A of Prostate cancer 4", "setting": "[1]; pH in lectin reaction 9.6", "result": 178.8, "unit": "U/mL"}, {"measurement": "lectin reaction value of Prostate cancer 5", "setting": "[1]; serum of Prostate cancer 5, GS 7 (3 + 4), pH in lectin reaction 9.6", "result": 115.8, "unit": "U/mL"}, {"measurement": "lectin reaction value of Prostate cancer 6", "setting": "[1]; serum of Prostate cancer 6, GS 7 (3 + 4), pH in lectin reaction 9.6", "result": 167.5, "unit": "U/mL"}, {"measurement": "lectin reaction value of Prostate cancer 7", "setting": "[1]; serum of Prostate cancer 7, GS 8 (3 + 5), pH in lectin reaction 9.6", "result": 125.6, "unit": "U/mL"}, {"measurement": "lectin reaction value of Prostate cancer 8", "setting": "[1]; serum of Prostate cancer 8, GS 8 (4 + 4), pH in lectin reaction 9.6", "result": 129.8, "unit": "U/mL"}, {"measurement": "lectin reaction value of Prostate cancer 9", "setting": "[1]; serum of Prostate cancer 9, GS 8 (4 + 4), pH in lectin reaction 9.6", "result": 251.4, "unit": "U/mL"}, {"measurement": "reaction value, Healthy person group, Average value", "setting": "[1]; [3]", "result": 57.3, "unit": "U/mL"}, {"measurement": "reaction value, Healthy person group, Median value", "setting": "[1]; [3]", "result": 55.9, "unit": "U/mL"}, {"measurement": "reaction value, Prostate cancer patient group, Average value", "setting": "[1]; [4]", "result": 145.1, "unit": "U/mL"}, {"measurement": "reaction value, Prostate cancer patient group, Median value", "setting": "[1]; [4]", "result": 125.6, "unit": "U/mL"}, {"measurement": "reaction value, GS6, Mean value", "setting": "[1]; subject samples A, n 2, pH 9.6", "result": 141.7, "unit": "U/mL"}, {"measurement": "reaction value, GS6, Median value", "setting": "[1]; subject samples A, n 2, pH 9.6", "result": 141.7, "unit": "U/mL"}, {"measurement": "reaction value, GS7, Mean value", "setting": "[1]; subject samples A, n 2, pH 9.6", "result": 141.7, "unit": "U/mL"}, {"measurement": "reaction value, GS7, Median value", "setting": "[1]; subject samples A, n 2, pH 9.6", "result": 141.7, "unit": "U/mL"}, {"measurement": "reaction value, Negative (GS5 or less), Mean value", "setting": "[1]; subject samples A, n 2, pH 9.6", "result": 116.3, "unit": "U/mL"}, {"measurement": "reaction value, Negative (GS5 or less), Median value", "setting": "[1]; subject samples A, n 2, pH 9.6", "result": 116.3, "unit": "U/mL"}, {"measurement": "reaction value, GS8 or more, Mean value", "setting": "[1]; subject samples A, n 3, pH 9.6", "result": 129.8, "unit": "U/mL"}, {"measurement": "reaction value, GS8 or more, Median value", "setting": "[1]; subject samples A, n 3, pH 9.6", "result": 168.9, "unit": "U/mL"}, {"measurement": "reaction value, GS8-9, Mean value", "setting": "[1]; subject samples B, n 6, pH 9.6", "result": 232.9, "unit": "U/mL"}, {"measurement": "reaction value, GS8-9, Median value", "setting": "[1]; subject samples B, n 6, pH 9.6", "result": 239.8, "unit": "U/mL"}, {"measurement": "reaction value, Negative, Mean value", "setting": "[1]; [5]", "result": 203.8, "unit": "U/mL"}, {"measurement": "reaction value, Negative, Median value", "setting": "[1]; [5]", "result": 178.0, "unit": "U/mL"}, {"measurement": "reaction value, GS6, Mean value", "setting": "[1]; subject samples B, n 9, pH 9.6", "result": 181.7, "unit": "U/mL"}, {"measurement": "reaction value, GS6, Median value", "setting": "[1]; subject samples B, n 9, pH 9.6", "result": 188.9, "unit": "U/mL"}, {"measurement": "reaction value, GS7, Mean value", "setting": "[1]; [6]", "result": 119.5, "unit": "U/mL"}, {"measurement": "reaction value, GS7, Median value", "setting": "[1]; [6]", "result": 210.6, "unit": "U/mL"}, {"measurement": "Binding constant for sugar chain No. 728", "setting": "[2]", "result": "<1000", "unit": "M⁻¹"}]}]}
